Measurements as given in patent publication US20160151337A1, “ANNELATED PYRROLES AND THEIR USE AS CRAC INHIBITORS” (Grünenthal GmbH, priority 2013, published 2016).

Assays:
[1] = molecular target: T1, CRAC channel (Homo sapiens, UniProt Q96D31); assay: HEK Calcium Influx Assay (FLIPR), inhibition of store-operated Ca2+ entry after thapsigargin store depletion; type: cell-based; settings: 10 μM compound, HEK293 cells, read-out: % inhib. [@ 10 μM] FLIPR
T1 construct: endogenous in cells; host or cells: HEK293 (ECACC), untransfected
Protocol: The effect of compounds of the invention on intracellular [Ca^2+] was tested in the HEK293 cell line (ECACC).
HEK293 cells were cultured in DMEM/F12/Glutamax (Gibco) containing 10% FCS (Gibco), and maintained at 37° C., 5% CO2. Cell were split twice a week [3*10^6 (Mon-Thu) and 1*10^6 (Thu-Mon) cells/50 ml medium in 1-175 ZK culture flasks, respectively]. Twenty four hours pre-experiment, cells were seeded on 96 well plates (Poly-D-Lysine 96 well Black/Clear Plate, BD Biocoat REF 356640) at a density of 40,000 cells/well in DMEM/F12 (Gibco) containing 10% FCS (Gibco), and maintained at 37° C., 5% CO2.
Prior to store-depletion, cell culture medium was removed and cells were loaded with the Calcium-sensitive fluorescent dye comprised within the Calcium-4-assay kit (Molecular Devices) in nominally Ca^2+-free HBS buffer (140 mM NaCl, 4 mM KCl, 0.2 mM MgCl2, 11 mM D-glucose, and 10 mM HEPES, pH 7.4) according to manufacturer's instruction for 60 min at 37° C., 5% CO2.
Passive depletion of intracellular Ca^2+-stores was then triggered by employing the SERCA inhibitor thapsigargin (2 μM final) for 10 min in the dark (RT). To prevent immediate Ca^2+-entry via the activated store-operated channels (SOCs), cells were maintained in Ca^2+-free HBS buffer comprising 100 μM EGTA during store-depletion.
Intracellular changes in [Ca^2+] were subsequently monitored with the FLIPR device (Molecular Devices). In brief, baseline imaging post-store depletion was allowed for 1 min before adjusting the extracellular buffer to 3 mM CaCl2. Increases in intracellular [Ca^2+] due to pre-activated SOC channels were monitored for 15 min until intracellular Ca^2+ levels had declined into a steady-state. Finally, compounds were administered, and Ca^2+ signals were recorded for additional 10 min.
Inhibition of endogenous SOC in HEK293 cells was quantified employing the average Ca^2+ signal measured from 9.5-10 min post-administration. Zero percent inhibition (MAX) was defined as the Ca^2+ signal recorded from wells to which DMSO-only had been added instead of compound. Hundred percent inhibition (MIN) was defined as the signal obtained from wells in which cells haven't been treated with TG prior to Ca^2+ addition and to which DMSO-only had been added instead of compound. For routine IC50 determinations of compounds, 8 concentrations of a serial dilution (1:3.16) were tested, starting off from 10 μM. Reliable IC50's could consequently be determined only, if they were at least sub 2.5-3 μM.

[2] = system: Interleukin-2 (IL-2) production/release in Jurkat T cells; assay: Jurkat IL-2 Production Assay (PHA-stimulated, IL-2 AlphaLisa); type: cell-based; settings: Homo sapiens, PHA 15 μg/ml, 22 h, inhibition of IL-2 production
Protocol: The effect of compounds of the invention on Interleukin-2 (IL-2) production/release was tested in the Jurkat T cell line (ECACC) clone E6-1.
Jurkat T cells were cultured in DMEM/F12/Glutamax (Gibco) containing 10% FCS (Gibco), and maintained at 37° C., 5% CO2. Cells were split twice a week [5*10^6 (Mon-Thu) and 1*10^7 (Thu-Mon) cells/50 ml medium in 1-175 ZK culture flasks, respectively].
Prior to experiment, cells were seeded on 96 well plates (Cellstar 96 Well; Cat No. 655180, Greiner bio-one) at a density of 5*10^5 cells/well in DMEM/F12/Glutamax (Gibco) containing 10% FCS (Gibco), and incubated for 60 min at 37° C., 5% CO2. Subsequently, compounds were added and cells were allowed to incubate for 30 min at 37° C., 5% CO2. Cells were then stimulated with 15 μg/ml Phyto-hemagglutinin (PHA; Sigma) for 22 hours at 37° C., 5% CO2.
Before sampling of the supernatants, cells were spun down (200*g/5 min/RT). The amount of IL-2 released into the supernatant was quantified with the human IL-2 AlphaLisa kit (Perkin Elmer) according to manufacturer's instructions. Luminescence proximity measurements were carried out in the Synergy H4 reader (BioTek) employing the fluorescence setting of the reader (ex: 680/30 nm; em: 620/40 nm).
Inhibition of IL-2 production/release in/from Jurkat T cells was quantified as follows: Zero percent inhibition (MAX) was defined as the [IL-2] determined in supernatants derived from cells to which PHA & DMSO-only had been added instead of compound. Hundred percent inhibition (MIN) was defined as the [IL-2] determined in supernatants derived from cells that had been pre-treated with 1 μM CyclosporineA (Sigma) before the addition of 15 μg/ml PHA.
For routine IC50 determinations of compounds, 8 concentrations of a serial dilution (1:3.16) were tested, starting off from 10 μM.

T1 sequence (Q96D31 whole entry): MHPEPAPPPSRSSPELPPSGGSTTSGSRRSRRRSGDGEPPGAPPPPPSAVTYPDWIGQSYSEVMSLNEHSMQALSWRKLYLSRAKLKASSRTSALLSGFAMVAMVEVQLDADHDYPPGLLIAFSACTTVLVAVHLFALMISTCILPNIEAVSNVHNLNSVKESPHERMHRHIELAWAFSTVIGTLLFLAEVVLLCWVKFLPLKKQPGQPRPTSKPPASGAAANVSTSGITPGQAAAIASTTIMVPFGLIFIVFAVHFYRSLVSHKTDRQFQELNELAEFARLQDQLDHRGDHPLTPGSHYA

| Compound | inhibition at 10 µM [1] [%] | IC50 [2] [µM] |
| --- | --- | --- |
| Cc1cc(CS(C)(=O)=O)ncc1N1CCc2[nH]c(-c3c(F)cccc3F)cc2C1 [Example 104, 2-(2,6-Difluoro-phenyl)-5-[4-methyl-6-(methylsulfonyl-methyl)-pyridin-3-yl]-4,5,6,7-tetrahydro-1H-pyrrolo[3,2-c]pyridine] | > 70 | 1 to 5 |
| Cc1cc(S(=O)(=O)N(C)C2CC2)ccc1N1CCc2[nH]c(-c3c(F)cccc3F)cc2C1 [Example 120, N-Cyclopropyl-4-[2-(2,6-difluoro-phenyl)-4,5,6,7-tetrahydro-1H-pyrrolo[3,2-c]pyridin-5-yl]-N,3-dimethyl-benzenesulfonic acid amide] | < 50 | 1 to 5 |
| Cc1sc(-c2ccccn2)nc1N1CCc2[nH]c(-c3c(F)cccc3F)cc2C1 [Example 6, 4-[2-(2,6-Difluoro-phenyl)-4,5,6,7-tetrahydro-1H-pyrrolo[3,2-c]pyridin-5-yl]-5-methyl-2-pyridin-2-yl-thiazole] | 50 to 70 | < 0.5 |
| Cc1cc(S(C)(=O)=O)c(F)cc1N1CCc2[nH]c(C3CCCCC3)cc2C1 [Example 110, 2-Cyclohexyl-5-(5-fluoro-2-methyl-4-methylsulfonyl-phenyl)-4,5,6,7-tetrahydro-1H-pyrrolo[3,2-c]pyridine] | < 50 | 1 to 5 |
| Cc1cc(S(C)(=O)=O)ncc1N1CCc2[nH]c(-c3c(F)cccc3F)c(F)c2C1 [Example 142, 2-(2,6-Difluoro-phenyl)-3-fluoro-5-(4-methyl-6-methylsulfonyl-pyridin-3-yl)-4,5,6,7-tetrahydro-1H-pyrrolo[3,2-c]pyridine] | > 70 | < 0.5 |
| Cc1sc(-c2cncnc2)nc1N1CCc2[nH]c(-c3c(F)cccc3F)cc2C1 [Example 30, 4-[2-(2,6-Difluoro-phenyl)-4,5,6,7-tetrahydro-1H-pyrrolo[3,2-c]pyridin-5-yl]-5-methyl-2-pyrimidin-5-yl-thiazole] | > 70 | 0.5 to 1 |
| Cc1cc(S(C)(=O)=O)ccc1N1CCc2[nH]c(-c3c(F)cccc3F)cc2C1 [Example 88, 2-(2,6-Difluoro-phenyl)-5-(2-methyl-4-methylsulfonyl-phenyl)-4,5,6,7-tetrahydro-1H-pyrrolo[3,2-c]pyridine] | 50 to 70 | < 0.5 |
| Cc1cc(S(=O)(=O)N2CCOCC2)ccc1N1CCc2[nH]c(-c3c(F)cccc3F)cc2C1 [Example 117, 4-[[4-[2-(2,6-Difluoro-phenyl)-4,5,6,7-tetrahydro-1H-pyrrolo[3,2-c]pyridin-5-yl]-3-methyl-phenyl]sulfonyl]-morpholine] | > 70 | 0.5 to 1 |
| Cc1cc(C)c(-c2cc3c([nH]2)CCN(c2cnc(C(F)(F)F)cc2C)C3)cn1 [Example 135, 2-(4,6-Dimethyl-pyridin-3-yl)-5-[4-methyl-6-(trifluoromethyl)-pyridin-3-yl]-4,5,6,7-tetrahydro-1H-pyrrolo[3,2-c]pyridine] | < 50 | 0.5 to 1 |
| Cc1sc(S(C)(=O)=O)nc1N1CCc2[nH]c(-c3c(F)cccc3F)cc2C1 [Example 133, 4-[2-(2,6-Difluoro-phenyl)-4,5,6,7-tetrahydro-1H-pyrrolo[3,2-c]pyridin-5-yl]-5-methyl-2-methylsulfonyl-thiazole] | > 70 | 0.5 to 1 |
| Cc1cc(S(=O)(=O)C(F)(F)F)ccc1N1CCc2[nH]c(-c3c(F)cccc3F)cc2C1 [Example 86, 2-(2,6-Difluoro-phenyl)-5-[2-methyl-4-(trifluoromethylsulfonyl)-phenyl]-4,5,6,7-tetrahydro-1H-pyrrolo[3,2-c]pyridine] | < 50 | 1 to 5 |
| CNS(=O)(=O)c1ccc(N2CCc3[nH]c(C4CCCCC4)cc3C2)c(C)c1 [Example 129] | < 50 | 1 to 5 |
| Cc1cc(S(C)(=O)=O)ncc1N1CCc2[nH]c(C3CCCCC3)cc2C1 [Example 72, 2-Cyclohexyl-5-(4-methyl-6-methylsulfonyl-pyridin-3-yl)-4,5,6,7-tetrahydro-1H-pyrrolo[3,2-c]pyridine] | > 70 | < 0.5 |
| CNS(=O)(=O)c1ccc(N2CCc3[nH]c(C4CCC(F)(F)CC4)cc3C2)c(C)c1 [Example 128, 4-[2-(4,4-Difluoro-cyclohexyl)-4,5,6,7-tetrahydro-1H-pyrrolo[3,2-c]pyridin-5-yl]-N,3-dimethyl-benzenesulfonic acid amide] | < 50 | 1 to 5 |
| Cc1sc(-c2cccnc2)nc1N1CCc2[nH]c(-c3c(F)cccc3F)cc2C1=O [Example 1, 2-(2,6-Difluoro-phenyl)-5-(5-methyl-2-pyridin-3-yl-thiazol-4-yl)-1,5,6,7-tetrahydro-pyrrolo[3,2-c]pyridin-4-one] | 50 to 70 | 1 to 5 |
| Cc1cc(S(=O)(=O)N2CCC2)ccc1N1CCc2[nH]c(-c3c(F)cccc3F)cc2C1 [Example 109, 5-[4-(Azetidin-1-ylsulfonyl)-2-methyl-phenyl]-2-(2,6-difluoro-phenyl)-4,5,6,7-tetrahydro-1H-pyrrolo[3,2-c]pyridine] | < 50 | < 0.5 |
| Cc1cc(C#N)c(F)cc1N1CCc2[nH]c(-c3c(F)cccc3F)cc2C1 [Example 67, 4-[2-(2,6-Difluoro-phenyl)-4,5,6,7-tetrahydro-1H-pyrrolo[3,2-c]pyridin-5-yl]-2-fluoro-5-methyl-benzonitrile] | < 50 | 0.5 to 1 |
| Cn1nc(C(F)(F)F)cc1N1CCc2[nH]c(-c3c(F)cccc3F)cc2C1 [Example 19, 2-(2,6-Difluoro-phenyl)-5-[2-methyl-5-(trifluoromethyl)-2H-pyrazol-3-yl]-4,5,6,7-tetrahydro-1H-pyrrolo[3,2-c]pyridine] | > 70 | < 0.5 |
| Cc1sc(-c2ccn(C)n2)nc1N1CCc2[nH]c(-c3c(F)cccc3F)cc2C1 [Example 99, 4-[2-(2,6-Difluoro-phenyl)-4,5,6,7-tetrahydro-1H-pyrrolo[3,2-c]pyridin-5-yl]-5-methyl-2-(1-methyl-1H-pyrazol-3-yl)-thiazole] | > 70 | < 0.5 |
| Cc1cc(C(F)(F)F)ncc1N1CCc2[nH]c(-c3c(F)cccc3F)cc2C1 [Example 73, 2-(2,6-Difluoro-phenyl)-5-[4-methyl-6-(trifluoromethyl)-pyridin-3-yl]-4,5,6,7-tetrahydro-1H-pyrrolo[3,2-c]pyridine] | > 70 | < 0.5 |
| Cc1nc(-c2cccnc2)sc1N1CCc2[nH]c(-c3c(F)cccc3F)cc2C1 [Example 18, 5-[2-(2,6-Difluoro-phenyl)-4,5,6,7-tetrahydro-1H-pyrrolo[3,2-c]pyridin-5-yl]-4-methyl-2-pyridin-3-yl-thiazole] | > 70 | < 0.5 |
